Columns and labels:
[1] = target: T1, KDM4E (Homo sapiens, UniProt B2RXH2); assay: Inhibition of KDM4E arginine hydroxylation (ROH), LC–MS; assay type: biochemical; details: for inhibition of +16 Da product formation: KDM4E with H2a(1–20)
T1 construct: KDM4E1–337; made in house; host or cells: E. coli
T1 sequence (B2RXH2 1-337): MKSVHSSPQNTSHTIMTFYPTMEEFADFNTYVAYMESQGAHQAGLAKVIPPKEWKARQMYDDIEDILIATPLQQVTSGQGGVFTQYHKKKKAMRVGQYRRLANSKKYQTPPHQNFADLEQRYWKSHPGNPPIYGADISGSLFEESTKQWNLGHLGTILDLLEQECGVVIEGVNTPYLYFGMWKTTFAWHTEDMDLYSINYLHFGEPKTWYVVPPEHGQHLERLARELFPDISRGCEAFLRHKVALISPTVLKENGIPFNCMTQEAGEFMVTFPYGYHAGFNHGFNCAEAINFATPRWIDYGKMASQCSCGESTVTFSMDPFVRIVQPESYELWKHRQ
Protocol: µM (NH4)2Fe(SO4)2, and 50 mM HEPES (pH 7.5). (c,d) Inhibition of arginine hydroxylation (ROH) activity of KDM4E by small molecule 2OG oxygenase inhibitors. ( c ) ROH activity measurements were performed using an LC–MS based assay (Error bars; +/- SD; n = 3 independent assays). Conditions: 10 µM H2a(1 -20) incubated with 1 µM KDM4E, 100 µM sodium L-ascorbate, 10 µM (NH4)2Fe(SO4)2 and 100 µM 2OG.
Reactions wer e quenched after 90 min. […]

[2] = target: T1, KDM4E; assay: FDH-coupled demethylation assay, Michaelis–Menten kinetics; assay type: biochemical
Protocol: The RDM activity of KDM4E with H2a(1–20)R3me2a was compared with demethylation of H3(1–21)R2me2a using a formaldehyde dehydrogenase (FDH) assay[23],[24]. KDM4E catalysed demethylation of H2a R3me2a was less efficient than H3 R2me2a by approximately three-fold under the same conditions (kcat/KM 0.89 hr^−1 µM^−1 for H2a(1–20)R3me2a and 2.58 hr^−1 µM^−1 for H3(1–21)R2me2a).
When LC–MS-based assays were used, time course assays were carried out as described; product formation (%) was plotted against time (s) using GraphPad Prism5 version 5.04. The gradient of each reaction was calculated by fitting a line of linear regression to the first-order region. The resultant slope was used to calculate reaction rate in µM hr^−1. The rate versus peptide concentration (µM) was plotted and the KM, kcat, and Vmax values determined by fitting the Michaelis–Menten equation using GraphPad Prism5 version 5.04. […]
Supplementary Figure 3 KDM4E catalysed H2a(1–20) hydroxylation and H3(1–21)R2me2a demethylation. Michaelis–Menten plots monitoring: ( a) hydroxylation of H2a(1–20) measured using LC– MS (R2 value obtained was 0.5 indicating poor goodness of fit, likely due to limited data at low substrate concentrations due to signal:noise limitations), (b) demethylation of H2a(1–20)R3me2a, and (c) demethylation of H3(1–21)R2me2a measured using the FDH-coupled demethylation assay. […]

[3] = target: T2, KDM5C (Homo sapiens, UniProt P41229); assay: MALDI–TOF MS screen of biotin-tagged H2a(1–20)R3X peptides with KDM5C; assay type: biochemical; details: for mass shift / −14 Da mass shift (demethylation): 60 min, KDM5C, MALDI–TOF MS, n = 2; for RDM activity: initial screen, biotinylated peptides
T2 construct: KDM5C 1– 765; made in house; host or cells: Sf9 cells
T2 sequence (P41229 1-765): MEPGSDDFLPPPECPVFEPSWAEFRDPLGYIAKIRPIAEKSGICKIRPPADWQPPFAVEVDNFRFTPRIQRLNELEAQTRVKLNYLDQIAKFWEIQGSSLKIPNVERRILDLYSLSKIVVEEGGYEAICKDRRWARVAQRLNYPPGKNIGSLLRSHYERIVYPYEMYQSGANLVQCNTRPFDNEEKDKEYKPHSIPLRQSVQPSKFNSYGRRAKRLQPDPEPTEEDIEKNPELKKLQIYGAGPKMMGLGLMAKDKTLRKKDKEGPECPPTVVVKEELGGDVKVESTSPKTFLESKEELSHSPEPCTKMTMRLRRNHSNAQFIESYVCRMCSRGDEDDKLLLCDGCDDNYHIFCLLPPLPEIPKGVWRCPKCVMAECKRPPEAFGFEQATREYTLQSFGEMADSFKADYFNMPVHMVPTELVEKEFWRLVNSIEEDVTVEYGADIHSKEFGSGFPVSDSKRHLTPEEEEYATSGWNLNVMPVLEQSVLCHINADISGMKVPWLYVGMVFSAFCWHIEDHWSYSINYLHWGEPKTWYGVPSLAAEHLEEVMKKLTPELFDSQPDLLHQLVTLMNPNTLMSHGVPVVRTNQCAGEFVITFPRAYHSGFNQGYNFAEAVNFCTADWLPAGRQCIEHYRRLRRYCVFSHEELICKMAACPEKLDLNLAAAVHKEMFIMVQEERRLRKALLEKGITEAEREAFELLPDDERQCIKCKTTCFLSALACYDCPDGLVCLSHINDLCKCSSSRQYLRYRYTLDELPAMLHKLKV
From the text: (§1) To investigate whether histone H2a is a JmjC-KDM substrate, we initially used mass spectrometry (MS) to screen a set of biotinylated N-terminal H2a(1–20) peptides with post-translational modifications (PTMs) at Arg-3, i.e. asymmetrically/symmetrically di-methylated Arg-3 (H2aR3me2a, H2aR3me2s, respectively), mono-methylated Arg-3 (H2aR3me1) and citrullinated Arg-3 (H2aR3Ci), against KDM4A, KDM4D, KDM4E and KDM5C. […] H2a(1–20)R3me2a, which appeared to be the most efficient RDM substrate in the screen, was then re-synthesised without a biotin tag and tested for RDM activity using the catalytic domains of all KDM4/KDM5 subfamily members.
(§2) MS-based screening assays with peptides and calf thymus histones were as reported; see Supplementary Table 6 for conditions. Time course assays were based on reported procedures. In brief, equal volumes of the enzyme and substrate solutions were combined to initiate the reaction; 10 µL of 2% (v/v) formic acid (HCOOH) in ddH2O or 100% methanol was added to 10 µL of the reaction mixture to quench reactions at different time points. Unless otherwise stated, time course assays were carried out in triplicate. In some cases, LC–MS was used instead of MALDI-TOF MS to avoid a MALDI matrix induced artefact with the hydroxylated product (Supplementary Fig. 16).
(§3) Supplementary Figure 1 Initial Screen of H2a fragments with KD M4 A, KDM4D, KDM4E, and KDM5C.
(§4) KDM4D, KDM4E, and KDM5C with H2a(1–20)R3X peptides from the AltaBioscience peptide library (Set 5) […]
(§5) (potentially), KDM4E, and KDM5C with H2a(1–20)R3me2a; KDM4E and KDM5C with H2a(1–20)R3me2s; and KDM5C wit h H2a(1–20 )R3 me1 . +1 6 Da mass shift s corr esponding t o hydr oxylat ion, were observed wit h […]
(§6) 20), and H2a(1–20)Ci3 (only with KDM4E).
(§7) H 2 a( 1–20)Ci3 and KDM5C with H2a(1–20 ) . […]
(§8) peptides except H2a(1–20)R3me2a. * Low-level peaks indicating ~10% demethylation. Experiments were repeated with the same results. For assay conditions see Supplementary Table 6 (n = 2, independent assays). Peptides were synthesised linked with C-terminal Nε-(D-biotin)-L- ly si ne -amide group (see
(§9) Supplementary Table 5 ) . […]
(§10) (1 picture or pasted object on this page, not shown here)
(§11) [ E nz ym e] [Peptide] [2OG] [Ascorbate] [(NH4)2F e(S O4)2] [TCEP] Buffer pH7.5 Enzyme Cognate substrate (mM) (mM) (mM) (mM) (mM) (mM) [HE PE S]
(§12) Supplementary Table 6 Summary of MS assay conditions for substrate screening. These conditions enabled efficient turnover of established substrates. Reactions were carried out at 37 °C unless otherwise st ated. […]

[4] = test system: KDM4A; assay: MALDI–TOF MS screen of biotin-tagged H2a(1–20)R3X peptides with KDM4A; assay type: biochemical, human; details: for RDM activity: initial screen, biotinylated peptides
From the text: as §1, §2, §3, §4, §5, §6, §7, §8, §9, §10, §11, §12

[5] = test system: KDM4D; assay: MALDI–TOF MS screen of biotin-tagged H2a(1–20)R3X peptides with KDM4D; assay type: biochemical, human; details: 60 min, n = 2
From the text: as §1, §2, §3, §4, §5, §6, §7, §8, §9, §10, §11, §12

[6] = target: T1, KDM4E; assay: MALDI–TOF MS screen of biotin-tagged H2a(1–20)R3X peptides with KDM4E; assay type: biochemical; details: for +16 Da mass shift (hydroxylation) / −14 Da mass shift (demethylation): 60 min, KDM4E, MALDI–TOF MS, n = 2; for RDM activity: initial screen, biotinylated peptides
From the text: as §1, §2, §3, §4, §5, §6, §7, §8, §9, §10, §11, §12

[7] = 60 min, 2 µM KDM4A, 10 µM peptide, MALDI–TOF MS, n = 2

Compound	+16 Da mass shift (hydroxylation) [6]	−14 Da mass shift (demethylation) [3]	RDM activity [3]	RDM activity [6]	inhibition of +16 Da product formation [1]	mass shift [4, 7]	+16 Da mass shift (hydroxylation) [5]	RDM activity [4]	further results
O=C(O)c1ccnc(C(=O)O)c1 [2,4-PDCA, 2,4-pyridine dicarboxylic acid]					inhibited				
Oc1cccc2cccnc12 [IOX1, 8-hydroxyquinoline]					inhibited				IC50 [1]: 22.9 µM
O=C(O)CNC(=O)C(=O)O [NOG, N-oxalylglycine]					inhibited				
AR [ me 2a ] T KQ T AR KST GGKAPR KQ L A [H3(1–21)R2me2a, reference compound]									kcat/KM (demethylation) ([2]; FDH assay, 2 µM KDM4E, 200 µM 2OG, pH 7.5, n = 3 assay repeats): 717 M⁻¹ s⁻¹; kcat/KM relative to KDM substrate H3 K9me3 (fold less) ([2]; same FDH assay, H3 K9me3 from ref 7): 13 fold
SGR GKQ GGKAR AKAKT R SSR - NH - Ahx - K- B i oti n [H2a(1–20) (AB), biotinylated H2a(1–20)]	observed					No mass shifts were observed	potentially		mass shift [3]: No mass shifts were observed
SGR[C i]GKQGGKARAKAKTRSSR-NH-Ahx-K-Biotin [H2a(1–20)Ci3 (AB), biotinylated H2a(1–20) with citrullinated Arg-3]	observed					No mass shifts were observed			mass shift [3]: No mass shifts were observed; mass shift [5]: No mass shifts were observed

Further lines, with some results ahead:

+16 Da mass shift (hydroxylation) [6]	−14 Da mass shift (demethylation) [3]	RDM activity [3]	RDM activity [6]	Compound	inhibition of +16 Da product formation [1]	mass shift [4, 7]	+16 Da mass shift (hydroxylation) [5]	RDM activity [4]	further results
observed	observed	Evidence for RDM activity	Evidence for RDM activity	SGR[me1]GKQGGKARAKAKTRSSR-NH-Ahx-K-Biotin [H2a(1–20)R3me1 (AB), biotinylated H2a(1–20) with mono-methylated Arg-3]		No mass shifts were observed	potentially	to a lesser extent	
observed	observed	Evidence for RDM activity	Evidence for RDM activity	SGR[me2a]GKQGGKARAKAKTRSSR-NH-Ahx-K-Biotin [H2a(1–20)R3me2a (AB), biotinylated H2a(1–20) with asymmetrically di-methylated Arg-3, AltaBioscience library]			potentially	to a lesser extent	−14 Da mass shift (demethylation) ([4]; 60 min, 2 µM KDM4A, 10 µM peptide, 37 °C, MALDI–TOF MS, n = 2): observed; −14 Da mass shift (demethylation) [5]: potentially; −14 Da mass shift (demethylation) [6]: observed
observed	observed	Evidence for RDM activity	Evidence for RDM activity	SGR[me2s ]GKQGGKARAKAKTRSSR-NH-Ahx-K-Biotin [H2a(1–20)R3me2s (AB), biotinylated H2a(1–20) with symmetrically di-methylated Arg-3]		No mass shifts were observed	potentially	to a lesser extent	−14 Da mass shift (demethylation) [6]: observed

Reference: publication PMC11603075 (Communications Biology, 2024)
